Results as given in US11760775B2, “Steroids and protein-conjugates thereof” (Regeneron Pharmaceuticals, Inc., priority 2016, dated 2023).
Values after ≈ are worked out from the molar mass of the structure shown. Values joined by “and” are separate entries in the source; they are usually repeats but may differ in a detail not shown here. Equal values may be shown once. Where a name gives a salt, the structure may show the parent alone. Read-outs that look alike come from different tables or passages of the source.

Columns and labels:
[1] = target: human liver cathepsin B (Homo sapiens (Human), UniProt P07858); test: Linker-payload cleavage in Cathepsin B assay; type: biochemical; details: for Conversion rate (%): Mean
Description: The linker-payloads were tested in a Cathepsin B assay. After 4 hr incubation in Cathepsin B (CapB) with and without CapB inhibitor ([…]), both linker-payloads and free payload were evaluated using LC-MS/MS.
The CapB assay procedure follows: Linker-payload stock solution (10 mM in DMSO) was spiked into incubation buffer (100 mM NaOAc, 10 mM dithiothreitol, pH5) to obtain a 50 μM substrate solution. 4 μL of 0.47 μg/μL human liver cathepsin B (Athens Research & Technology, Athens, GA) in 50 mM NaOAc, 1 mM EDTA, pH 5 was added into 196 μL of 50 μM substrate solution. The reaction mixture was incubated at 37° C. for 4 hr. Then 5 μL of acetic acid and 150 μL of acetonitrile (containing osalmid as internal standard) were added to 50/Th of reaction mixture aliquots. After vortexing, the quenched samples were frozen in a −70° C. deep freezer, followed by thawing and centrifugation at 14,000 rpm.
The CapB assay experiment included the following procedure. • 1. Preheat assay buffer: 0.1 M NaOAc/0.01 M DTT (pH 5.0) • 2. Spiking solutions for test compounds: 25 μM Spiking solutions for test compounds: Add […], of 5 mM stock solution into 398 μL of 0.1 M NaOAc/0.01 M DTT buffer (pH 5.0). • 3. Prepare 0.47m/μL Cathepsin B in 50 mM NaOAc/1 mM EDTA (pH 5.0). Put on ice. • 4. Without CA074 samples: Add […], of 0.47m/μL Cathepsin B into 196 μL of 25 μM Spiking solutions (from step 2), incubate the tubes at 37° C. • 5. With CA074 samples: Add 4 μL of 0.47m/μL Cathepsin B with 4 μL of 10 mM Inhibitor (CA074) into 196 μL of 25 μM Spiking solutions (from step 2), incubate the tubes at 37° C. • 6. After 4 hours, Aliquots of 5 μL (with CA074 and without CA074) were taken for enzyme activity test (step 15-17). Meanwhile, Aliquots of 50 μL were taken at the time point (4 h), adding 5 μL of acetic acid, and then add 150 μL of ACN (IS) to stop the reaction. • 7. After quenching, shake the plate and centrifuge them at 14000 rpm. • 8. Transfer 50 μL of the supernatant from each well into a 96-well sample plate containing 50 μL of ultra pure water (Millipore, ZMQS50F01) for LC/MS analysis.
The CapB assay experiment included the reference compounds and the following procedure. • 9. Preheat assay buffer: 100 mM Na/K phosphate, pH6.0, with 1.33 mM EDTA and 2 mM DTT. • 10. Prepare 0.024m/μL Cathepsin B: Add […] of 0.47 μg/μL Cathepsin B stock into 19 μL of assay buffer (from step 11). • 11. Add 2 μL of 0.024m/μL Cathepsin B (from step 12) to a opaque 96-well plate. • 12. Add 96 μL of assay buffer to each sample. • 13. Add 2 μL of the 10 mM substrate Z—RR-MNA(200 μM final concentration). • For negative control (with inhibitor), add 2 μL of 10 mM Inhibitor (CA074). • 14. Immediately read the samples in a kinetic mode at excitation of 340 nm/emission of 425 nm (Read the plate every 30 Second for 3 min).
Stability of Cathepsin B in incubation samples: • 15. Take Take 5 μL of incubation samples into 93 μL of assay buffer (from step 11), and then add 2 μL of 10 mM substrate (Z—RR-MNA). • 16. Incubate the samples at 37° C. for 2 min. • 17. Read the samples at excitation of 340 nm/emission of 425 nm.

[2] = Pharmacokinetics of 4b and 6-I in mice (blood concentration-time); type: in vivo, C57BL/6j mice; parameters: Tmax: unit not given here; details: IP, 1 mg/Kg in male C57BL/6 mice, Mean
[3] = system: GR activation in 293/PRLR/GRE-Luc cells (HEK293/9xUAS-Luc2P/pBind-GR/PRLR-HA high cells); test: GR co-activator luciferase reporter cell based assay in 293/PRLR/GRE-Luc cells; parameters: species or system human; details: for EC50 / Emax: Homo sapiens; for EC50: HEK293, read-out: HEK293/9xUAS-Luc2P/pBind-GR/PRLR-HA high cells EC50; for Emax: HEK293, read-out: Activation (fold activation relative to Budesonide) in HEK293/9xUAS-Luc2P/pBind-GR/PRLR-HA high cells
In short: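 HEK293 cells stably expressing PRLR, a Gal4–GR LBD chimera and a 9×Gal4UAS-Luc2P reporter were seeded at 20,000 per well and treated with free steroid or anti-PRLR steroid ADC. Luciferase (One-Glo) was read as RLU, and EC50 was fitted by four-parameter logistic over 10 points. Minimal activation means under 10% of free-payload maximum.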

[4] = system: LPS-induced cytokine release (TNF-α); test: Mouse model of LPS induced cytokine release (TNF-α in plasma); type: in vivo, C57BL/6j mice; details: for TNF-a: plasma 2 hr post LPS challenge, individual mice
[5] = Solubility in water and DMSO/water
[6] = target: Glucocorticoid Receptor (GR) (Homo sapiens (Human), UniProt P04150); test: LanthaScreen TR-FRET GR Competitive Binding Assay (cell free)
Glucocorticoid Receptor (GR), sequence (P04150 524-758): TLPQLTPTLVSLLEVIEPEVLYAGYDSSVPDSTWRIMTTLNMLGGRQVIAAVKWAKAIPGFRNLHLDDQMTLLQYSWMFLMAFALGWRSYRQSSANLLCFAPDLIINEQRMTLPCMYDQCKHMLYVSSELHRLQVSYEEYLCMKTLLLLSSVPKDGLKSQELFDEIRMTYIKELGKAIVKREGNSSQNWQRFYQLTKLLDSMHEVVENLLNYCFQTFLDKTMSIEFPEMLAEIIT

[7] = with CA074 (Cathepsin B inhibitor), 4 hr incubation
[8] = without CA074, 4 hr incubation with Cathepsin B

SMILES: CCCC1O[C@@H]2C[C@H]3[C@@H]4C[C@H](F)C5=CC(=O)C=C[C@]5(C)[C@@]4(F)[C@@H](O)C[C@]3(C)[C@]2(C(=O)COc2ccc(NC(=O)OCc3ccc(NC(=O)[C@H](CCCNC(N)=O)NC(=O)[C@@H](NC(=O)[C@@H](N)CCCCNC(=O)COC4C#CCCCCC4)C(C)C)cc3)cc2)O1 (some centres unmarked) [LP103]
- Conversion rate (%) [1, 7]: <1.00%
- Conversion rate (%) [1, 8]: 29.0%

SMILES: CCCC1O[C@@H]2C[C@H]3[C@@H]4C[C@H](F)C5=CC(=O)C=C[C@]5(C)[C@@]4(F)[C@@H](O)C[C@]3(C)[C@]2(C(=O)CNC(=O)OCc2ccc(NC(=O)[C@H](CCCNC(N)=O)NC(=O)[C@@H](NC(=O)[C@@H](N)CCCCNC(=O)COC3C#CCCCCC3)C(C)C)cc2)O1 (some centres unmarked) [LP101]
- Conversion rate (%) [1, 7]: <1.00%
- Conversion rate (%) [1, 8]: 48.20%

SMILES: CCCC1O[C@@H]2C[C@H]3[C@@H]4C[C@H](F)C5=CC(=O)C=C[C@]5(C)[C@@]4(F)[C@@H](O)C[C@]3(C)[C@]2(C(=O)COc2ccc(N)cc2)O1 (stereo partly drawn) [Compound 6-I, (1S,2S,4R,8S,9S,11S,12R,13S,19S)-8-[2-(4-Aminophenoxy)acetyl]-12,19-difluoro-11-hydroxy-9,13-dimethyl-6-propyl-5,7-dioxapentacyclo[10.8.0.0^2,90.0^4,80.0^13,118]icosa-14,17-dien-16-one]
- Tmax [2]: 0.250
- AUC(0-inf) ([2]; mouse, in vivo, read-out: AUCINF): 113 ng·h/mL
- AUC(0-t) ([2]; mouse, in vivo, read-out: AUClast): 107 ng·h/mL
- Cmax ([2]; mouse, in vivo, read-out: Cmax): 44.8 ng/mL
- half-life ([2]; mouse, in vivo, read-out: Terminal t1/2 (converted)): 115 min
- EC50 [3]: < 10 nM
- HEK293/9xUAS-Luc2P/pBind-GR/PRLR-HA high cells activation relative to Budesonide ([3]; fold activation vs Budesonide): Full
- Inhibition of TNF-α production ([4]; 5 mpk ip before LPS challenge, plasma at 2 hr time point): time dependent inhibition
- TNF-a ([4]; 5MPK ip (−2 h) prior to LPS): 110.6 pg/mL and 30.8 pg/mL and 240.8 pg/mL
- TNF-a ([4]; 5MPK ip (−24 h) prior to LPS): 23.1 pg/mL and 997.3 pg/mL and 55.4 pg/mL
- TNF-a ([4]; 5MPK ip (−48 h) prior to LPS): 1280.1 pg/mL and 1149.4 pg/mL and 750.0 pg/mL

SMILES: CCCC1O[C@@H]2C[C@H]3[C@@H]4C[C@H](F)C5=CC(=O)C=C[C@]5(C)[C@@]4(F)[C@@H](O)C[C@]3(C)[C@]2(C(=O)CNC(=O)OCc2ccc(NC(=O)[C@H](CCCNC(N)=O)NC(=O)[C@@H](NC(=O)[C@@H](CCCCNC(=O)COC3CCCCCc4c3nnn4CC3OC4OC5C(CO)OC(OC6C(CO)OC(OC7C(CO)OC(OC8C(CO)OC(OC9C(CO)OC(OC3C(O)C4O)C(O)C9O)C(O)C8O)C(O)C7O)C(O)C6O)C(O)C5O)NC(=O)CCOCCOCCOCCOCCNC(=O)CCC(=O)N3Cc4ccccc4C#Cc4ccccc43)C(C)C)cc2)O1 (some centres unmarked) [LP104]
- Cleavage by Cathepsin B and payload release ([1]; 4 hr incubation, LC-MS/MS): could be cleaved by CapB and released more payload (4b)
- Conversion rate (%) [1, 7]: <1.00%
- Conversion rate (%) [1, 8]: 29.0%

SMILES: CCCC1O[C@@H]2C[C@H]3[C@@H]4C[C@H](F)C5=CC(=O)C=C[C@]5(C)[C@@]4(F)[C@@H](O)C[C@]3(C)[C@]2(C(=O)CNC(=O)OCc2ccc(NC(=O)[C@H](CCCNC(N)=O)NC(=O)[C@@H](NC(=O)CCOCCOCCOCCOCCNC(=O)CCC(=O)N3Cc4ccccc4C#Cc4ccccc43)C(C)C)cc2)O1 (some centres unmarked) [LP112]
- Conversion rate (%) [1, 7]: <1.00%
- Conversion rate (%) [1, 8]: 20.8%

SMILES: CCCC1O[C@@H]2C[C@H]3[C@@H]4C[C@H](F)C5=CC(=O)C=C[C@]5(C)[C@@]4(F)[C@@H](O)C[C@]3(C)[C@]2(C(=O)COc2ccc(NC(=O)[C@H](C)NC(=O)[C@@H](NC(=O)[C@@H](N)CCCCNC(=O)COC3C#CCCCCC3)C(C)C)cc2)O1 (some centres unmarked) [LP102]
- Conversion rate (%) [1, 7]: <1.00%
- Conversion rate (%) [1, 8]: 22.72%

SMILES: CCCC1O[C@@H]2C[C@H]3[C@@H]4C[C@H](F)C5=CC(=O)C=C[C@]5(C)[C@@]4(F)[C@@H](O)C[C@]3(C)[C@]2(C(=O)COc2ccc(NC(=O)OCc3ccc(NC(=O)[C@H](CCCNC(N)=O)NC(=O)[C@@H](NC(=O)CCOCCOCCOCCOCCNC(=O)CCC(=O)N4Cc5ccccc5C#Cc5ccccc54)C(C)C)cc3)cc2)O1 (some centres unmarked) [LP116]
- Conversion rate (%) [1, 7]: <1.00%

SMILES: CCC[C@@H]1O[C@@H]2C[C@H]3[C@@H]4CCC5=CC(=O)C=C[C@]5(C)[C@H]4[C@@H](O)C[C@]3(C)[C@]2(C(=O)COc2ccc(NC(=O)[C@H](C)NC(=O)[C@@H](NC(=O)CCOCCOCCOCCOCCNC(=O)CCC(=O)N3Cc4ccccc4C#Cc4ccccc43)C(C)C)cc2)O1 [LP7]
- solubility ([5]; 20% DMSO in water, aqueous with cosolvent or surfactant or cyclodextrin): 60 µg/mL (≈ 48.9 µM)
- solubility ([5]; 30% DMSO in water, aqueous with cosolvent or surfactant or cyclodextrin): 70 µg/mL (≈ 57.1 µM)
- solubility ([5]; water): < 100 µg/mL

SMILES: CCCC1O[C@@H]2C[C@H]3[C@@H]4C[C@H](F)C5=CC(=O)C=C[C@]5(C)[C@@]4(F)[C@@H](O)C[C@]3(C)[C@]2(C(=O)COc2cccc(N)n2)O1 (stereo partly drawn) [11-17 R/S, (1S,2S,4R,8S,9S,11S,12R,13S,19S)-8-{2-[(6-Aminopyridin-2-yl)oxy]acetyl}-12,19-difluoro-11-hydroxy-9,13-dimethyl-6-propyl-5,7-dioxapentacyclo[10.8.0.0^2,90.0^4,80.0^13,18]icosa-14,17-dien-16-one]
- IC50 [6]: < 10 nM
- Emax ([3]; 72 hours of incubation): > 75%
- EC50 ([3]; 72 hours of incubation): 10 to 100 nM

SMILES: CCCC1O[C@@H]2C[C@H]3[C@@H]4C[C@H](F)C5=CC(=O)C=C[C@]5(C)[C@@]4(F)[C@@H](O)C[C@]3(C)[C@]2(C(=O)CN)O1 (stereo partly drawn) [11-19 R/S, (1S,2S,4R,6R,8S,9S,11S,12R,13S,19S)-8-(2-Aminoacetyl)-12,19-difluoro-11-hydroxy-9,13-dimethyl-6-propyl-5,7-dioxapentacyclo[10.8.0.0^2,90.0^4,80.0^13,18]icosa-14,17-dien-16-one; trifluoroacetic acid salt]
- IC50 [6]: < 10 nM
- Emax ([3]; 72 hours of incubation): > 75%
- EC50 ([3]; 72 hours of incubation): < 10 nM

SMILES: CCCC1O[C@@H]2C[C@H]3[C@@H]4C[C@H](F)C5=CC(=O)C=C[C@]5(C)[C@@]4(F)[C@@H](O)C[C@]3(C)[C@]2(C(=O)COc2ccc(N)c(F)c2)O1 (stereo partly drawn) [11-14 R/S, (1S,2S,4R,8S,9S,11S,12R,13S,19S)-8-[2-(4-Amino-3-fluorophenoxy)acetyl]-12,19-difluoro-11-hydroxy-9,13-dimethyl-6-propyl-5,7-dioxapentacyclo[10.8.0.0^2,9.0^4,80.0^13,18]icosa-14,17-dien-16-one]
- IC50 [6]: < 10 nM
- Emax ([3]; 72 hours of incubation): > 75%
- EC50 ([3]; 72 hours of incubation): < 10 nM
